From patent US20110195979A1, “COMPOUNDS FOR THE TREATMENT AND PREVENTION OF INFLUENZA” (priority 2010, published 2011) come the findings set out here.

Molecules are shown by their SMILES.

One data set has as its system Influenza H1N1 virus. As to the kind of experiment: Viral cytopathic effect (CPE) assay. The data set is classed as cell-based, Influenza A (H1N1). The note with it: Influenza A virus, H1N1, MDCK, 72 h, read-out: CPE_EC50. Here is the method: Cells and viruses. Madin-Darby canine kidney cell (MDCK) was purchased from American type culture collection (ATCC) and was maintained in minimal essential medium (MEM) containing 10% fetal bovine serum and antibiotics. Influenza A/Weiss/43 (H1N1), A/PR/8/34 (H1N1), and A/Hongkong/8/68 (H3N2) were purchased from ATCC and propagated in 10-day-old embryonated chicken eggs at 37° C. Virus was harvested 48 h after inoculation as pooled allantoic fluid. After a brief centrifugation (3,000 rpm at room temperature for 20 min) and virus titer measurement by a hemagglutination test, virus was aliquoted and stored at a −80° C. freezer.
Viral cytopathic effect (CPE) assay: To measure anti-influenza activity of compounds, MDCK cells were seeded into 96-well plates at a density of 5,000 cells per well. Next day, compounds were serially half-log diluted with Gibco SFM containing trypsin. Compounds and 50 pfu of virus were added into corresponding wells to make m.o.i at 0.01 and a final trypsin concentration of 2.5 μg/ml. The testing plates also contained medium control, cell control, virus control, and compound toxicity control. After a 3-day treatment, cell viability was measured with a MTT (3-(4,5-dimethylthiazol-2-yl)-2,5-diphenyltetrazolium bromide) method. Briefly, 20 μl of MTT diluted in culture medium was added into each wells and incubated at 37° C. for 4 hours. Reduced MTT (formazan) was extracted with acidic isopropanol and absorbance at wavelengths of 570 nm and 630 nm (OD570 and OD630) was read on a microtiter plate reader. After subtraction of background OD values, dose response curves of half-log concentration vs. percent protection were generated, on which half maximal effective concentration (EC50) and half maximal toxic concentration (CC50) were calculated.
In general terms: Damage to the host cells serves as the signal in cytopathic effect assays.

For the next data set, the system named is MDCK cells. As to the kind of experiment: in vitro. The note with it: dog, Cytotoxicy IC50.

With `COC1CC(C)(C)CC(C)(CNc2cc(F)cc(C(F)(F)F)c2)C1` (stereo not drawn) [Example IIf-1, (3-Fluoro-5-trifluoromethyl-phenyl)-((cis-1,5)-5-methoxy-1,3,3-trimethyl-cyclohexylmethyl)-amine], the EC50 in the data set on Influenza H1N1 virus stood at 129 nM. The IC50 (in general, the point on the concentration scale where inhibition reaches its midpoint) at 3 day with MDCK cells was above 3160 nM.

Turning to `CC(C)c1cccc(NC(=O)C2(C)CC(O)CC(C)(C)C2)c1` (stereo not drawn) [Example IVa-5, (cis-1,5)-5-Hydroxy-1,3,3-trimethyl-cyclohexanecarboxylic acid(3-isopropyl-phenyl)-amide], the EC50 with Influenza H1N1 virus stood at 1040 nM. The same compound displayed an IC50 at 3 day in the data set with MDCK cells of 21600 nM.

On to `CC1(C)CC(O)CC(C)(C(=O)Nc2ccc(Cl)c(Cl)c2)C1` (stereo not drawn) [Example IVa-20, (cis-1,5)-5-Hydroxy-1,3,3-trimethyl-cyclohexanecarboxylic acid(3,4-dichloro-phenyl)-amide], for which the EC50 in the data set on Influenza H1N1 virus was found to be 627 nM. Also, the IC50 at 3 day with MDCK cells was 9630 nM.

For `CC1(C)CC(O)CC(C)(C(=O)Nc2ccc(Cl)c(F)c2)C1` (stereo not drawn) [Example IVa-19, (cis-1,5)-5-Hydroxy-1,3,3-trimethyl-cyclohexanecarboxylic acid(4-chloro-3-fluoro-phenyl)amide], the EC50 in the data set on Influenza H1N1 virus is 1800 nM. Besides, 30800 nM corresponded to half-maximal inhibition with MDCK cells (IC50 at 3 day).

With `CC1(C)CC(O)CC(C)(C(=O)Nc2cc(F)cc(C(F)(F)F)c2)C1` (stereo not drawn) [Example IVa-13, (cis-1,5)-5-Hydroxy-1,3,3-trimethyl-cyclohexanecarboxylic acid(3-fluoro-5-trifluoromethyl-phenyl)-amide], the EC50 in the data set with Influenza H1N1 virus turned out to be 54 nM. The compound further registered an IC50 at 3 day with MDCK cells of 52800 nM.

Take `CC1(C)CC(O)CC(C)(C(=O)Nc2ccc(F)c(C(F)(F)F)c2)C1` (stereo not drawn) [Example IVa-21, (cis-1,5)-5-Hydroxy-1,3,3-trimethyl-cyclohexanecarboxylic acid(4-fluoro-3-trifluoromethyl-phenyl)-amide]: the EC50 with Influenza H1N1 virus turned out to be 454 nM. This compound yielded an IC50 at 3 day in the data set with MDCK cells of 29600 nM.

Turning to `CC1(C)CC(O)CC(C)(C(=O)Nc2cccc(OC(F)(F)F)c2)C1` (stereo not drawn) [Example IVa-8, (cis-1,5)-5-Hydroxy-1,3,3-trimethyl-cyclohexanecarboxylic acid(3-trifluoromethoxy-phenyl)-amide], in the data set with Influenza H1N1 virus, the EC50 was found to be 861 nM. In the data set with MDCK cells, this compound registered an IC50 at 3 day of 60000 nM.

With `COc1ccnc(NCC2(C)CC(O)CC(C)(C)C2)n1` (stereo not drawn) [Example IIIa-11, (cis-1,3)-3-[(4-Methoxy-pyrimidin-2-ylamino)-methyl]-3,5,5-trimethyl-cyclohexanol], the EC50 in the data set with Influenza H1N1 virus amounted to 1500 nM. In addition, the IC50 at 3 day in the data set on MDCK cells was above 50000 nM.

For the compound `CC1(C)CC(O)CC(C)(CNc2cc(S(N)(=O)=O)ccn2)C1` (stereo not drawn) [Example IIIa-8, 2-[((cis-1,5)-5-Hydroxy-1,3,3-trimethyl-cyclohexylmethyl)-amino]-pyridine-4-sulfonic acid amide], in the data set with Influenza H1N1 virus, the EC50 was 980 nM. In addition, the IC50 at 3 day in the data set with MDCK cells is above 100000 nM.

As for `CC1(C)CC(NS(C)(=O)=O)CC(C)(C(=O)Nc2cccc(Cl)c2)C1` (stereo not drawn) [Example IVb-4, (cis-1,5)-5-Methanesulfonylamino-1,3,3-trimethyl-cyclohexanecarboxylic acid(3-chloro-phenyl)-amide], in the data set on Influenza H1N1 virus, the EC50 came out at 2770 nM. The IC50 at 3 day in the data set on MDCK cells was above 100000 nM.

As to `CC(=O)OC1CC(C)(C)CC(C)(CNc2ccccc2)C1` (stereo not drawn) [Example IId-1, Acetic acid (cis-1,5)-3,3,5-trimethyl-5-phenylaminomethyl-cyclohexyl ester], the EC50 in the data set on Influenza H1N1 virus stood at 492 nM. Also, in the data set with MDCK cells, half-maximal inhibition (IC50 at 3 day) required 64400 nM.

As for `Cc1cc(Cl)cc(NCC2(C)CC(O)CC(C)(C)C2)c1` (stereo not drawn) [Example IIa-18, (cis-1,3)-3-[(3-Chloro-5-methyl-phenylamino)-methyl]-3,5,5-trimethyl-cyclohexanol], the EC50 with Influenza H1N1 virus stood at 25 nM. Also, the IC50 at 3 day in the data set with MDCK cells was above 3160 nM.

As to `CC1(C)CC(O)CC(C)(CNc2ncccc2C(F)(F)F)C1` (stereo not drawn) [Example IIIa-5, (cis-1,5)-3,3,5-Trimethyl-5-[(3-trifluoromethyl-pyridin-2-ylamino)-methyl]-cyclohexanol], the EC50 with Influenza H1N1 virus was below 159 nM. This compound also had an IC50 at 3 day in the data set with MDCK cells of 22100 nM.

As for `CC1(C)CC(O)CC(C)(CNc2cc(F)cc(C(F)(F)F)c2)C1` (stereo not drawn) [Example IIa-17, (cis-1,3)-3-[(3-Fluoro-5-trifluoromethyl-phenylamino)-methyl]-3,5,5-trimethyl-cyclohexanol], the EC50 in the data set on Influenza H1N1 virus stood at 18 nM. This compound showed an IC50 at 3 day with MDCK cells of 3660 nM.

As to `CN(CC1(C)CC(O)CC(C)(C)C1)c1cccc(Cl)c1` (stereo not drawn) [Example IIb-1, (cis-1,3)-3-{[(3-Chloro-phenyl)-methyl-amino]-methyl}-3,5,5-trimethyl-cyclohexanol], the EC50 in the data set on Influenza H1N1 virus worked out at 600 nM. In addition, the IC50 at 3 day with MDCK cells came to 7580 nM.

Regarding `CC1(C)CC(O)CC(C)(CNc2cc(F)cc(C#N)c2)C1` (stereo not drawn) [Example IIa-22, 3-Fluoro-5-[((cis-1,5)-5-hydroxy-1,3,3-trimethyl-cyclohexylmethyl)-amino]-benzonitrile], in the data set with Influenza H1N1 virus, the EC50 is 50 nM. This compound also showed an IC50 at 3 day with MDCK cells of 23900 nM.

With `CC1(C)CC(O)CC(C)(C(=O)Nc2cccc(C(F)(F)F)c2)C1` (stereo not drawn) [Example IVa-4, (cis-1,5)-5-Hydroxy-1,3,3-trimethyl-cyclohexanecarboxylic acid(3-trifluoromethyl-phenyl)-amide], the EC50 in the data set with Influenza H1N1 virus came out at 340 nM. This compound yielded an IC50 at 3 day in the data set on MDCK cells of 68300 nM.

As for `CC1(C)CC(O)CC(C)(C(=O)Nc2cc(F)cc(F)c2)C1` (stereo not drawn) [Example IVa-11, (cis-1,5)-5-Hydroxy-1,3,3-trimethyl-cyclohexanecarboxylic acid(3,5-difluoro-phenyl)-amide], the EC50 in the data set on Influenza H1N1 virus was found to be 320 nM. In the data set with MDCK cells, this compound displayed an IC50 at 3 day above 100000 nM.

For `CC1(C)CC(O)CC(C)(CNc2nccc3ccccc23)C1` (stereo not drawn) [Example IIIf-1, (cis-1,3)-3-(Isoquinolin-1-ylaminomethyl)-3,5,5-trimethyl-cyclohexanol], the EC50 in the data set on Influenza H1N1 virus was 2370 nM. Also, inhibition in the data set with MDCK cells was half-maximal at 43700 nM (IC50 at 3 day).

For the compound `COc1cc(NC(=O)C2(C)CC(O)CC(C)(C)C2)cc(C(F)(F)F)c1` (stereo not drawn) [Example IVa-16, (cis-1,5)-5-Hydroxy-1,3,3-trimethyl-cyclohexanecarboxylic acid(3-methoxy-5-trifluoromethyl-phenyl)-amide], in the data set with Influenza H1N1 virus, the EC50 was 60 nM. Moreover, in the data set with MDCK cells, the IC50 at 3 day is 74800 nM.

Regarding `CC1(C)CC(F)(F)CC(C)(CNc2nc3ccccc3o2)C1` (stereo not drawn) [Example IIIc-2, Benzoxazol-2-yl-(3,3-difluoro-1,5,5-trimethyl-cyclohexylmethyl)-amine], in the data set with Influenza H1N1 virus, the EC50 amounted to 3360 nM. Moreover, in the data set with MDCK cells, 10900 nM corresponded to half-maximal inhibition (IC50 at 3 day).

Take `CC1(C)CC(O)CC(C)(CNc2cc(Cl)cc(Cl)c2)C1` (stereo not drawn) [Example IIa-19, (cis-1,3)-3-[(3,5-Dichloro-phenylamino)-methyl]-3,5,5-trimethyl-cyclohexanol]: in the data set on Influenza H1N1 virus, the EC50 worked out at 32 nM. Further, in the data set with MDCK cells, 7190 nM corresponded to half-maximal inhibition (IC50 at 3 day).

`CC1(C)CC(O)CC(C)(CNc2cc(Br)cc(C(F)(F)F)c2)C1` (stereo not drawn) [Example IIa-21, (cis-1,3)-3-[(3-Bromo-5-trifluoromethyl-phenylamino)-methyl]-3,5,5-trimethyl-cyclohexanol]: the EC50 with Influenza H1N1 virus worked out at 58 nM. In the data set on MDCK cells, this compound came in with an IC50 at 3 day above 3160 nM.

For the compound `CC1(C)CC(O)CC(C)(C(=O)Nc2cc(Cl)cc(C(F)(F)F)c2)C1` (stereo not drawn) [Example IVa-14, (cis-1,5)-5-Hydroxy-1,3,3-trimethyl-cyclohexanecarboxylic acid(3-chloro-5-trifluoromethyl-phenyl)-amide], the EC50 with Influenza H1N1 virus amounted to 19 nM. The compound further returned an IC50 at 3 day in the data set on MDCK cells of 22200 nM.
